Measurements from ChEMBL document CHEMBL3751788, “The new facile and straightforward method for the synthesis of 4H-1,2,3-thiadiazolo[5,4-b]indoles and determination of their antiproliferative activity” (Eur J Med Chem, 2016).
Activity calls are given as the source filed them. The rule behind the calls is not given here.

Key:
[1] = tested on: Jurkat; assay: Induction of reactive oxygen species in human Jurkat cells after 48 hrs by flow cytometry analysis; format: functional, cell-based
[2] = tested on: HEK293; assay: Antiproliferative activity against human HEK293 cells incubated with 2000 cells per well after 48 hrs by MTT assay; format: cell-based; conditions: HEK293, 48 h
[3] = tested on: K562; assay: Induction of apoptosis in human K562 cells assessed as late apoptotic cells at 25 uM after 48 hrs by annexin-V-FITC/PI staining based flow cytometry; format: functional, cell-based
[4] = tested on: Jurkat; assay: Induction of apoptosis in human Jurkat cells assessed as late apoptotic cells at 25 uM after 48 hrs by annexin-V-FITC/PI staining based flow cytometry; format: functional, cell-based
[5] = tested on: K562; assay: Induction of reactive oxygen species in human K562 cells after 48 hrs by flow cytometry analysis; format: functional, cell-based
[6] = tested on: MCF7; assay: Antiproliferative activity against human MCF7 cells after 48 hrs by MTT assay; format: functional, cell-based; conditions: MCF7, 48 h
[7] = tested on: K562; assay: Induction of apoptosis in human K562 cells assessed as early apoptotic cells at 25 uM after 48 hrs by annexin-V-FITC/PI staining based flow cytometry; format: functional, cell-based
[8] = tested on: HT-29; assay: Antiproliferative activity against human HT-29 cells after 72 hrs by MTT assay; format: functional, cell-based; conditions: HT-29, 72 h
[9] = tested on: HT-29; assay: Antiproliferative activity against human HT-29 cells after 96 hrs by MTT assay; format: functional, cell-based; conditions: HT-29, 96 h
[10] = tested on: Jurkat; assay: Induction of apoptosis in human Jurkat cells assessed as early apoptotic cells at 25 uM after 48 hrs by annexin-V-FITC/PI staining based flow cytometry; format: functional, cell-based
[11] = organism: Mus musculus; assay: Induction of apoptosis in C57BL/6 mouse liver mitochondrial assessed as cytochrome c release after 1 hr by immunoblotting method; format: functional; conditions: Mitochondria
[12] = tested on: Jurkat; assay: Induction of apoptosis in human Jurkat cells assessed as early apoptotic cells at 10 uM after 48 hrs by annexin-V-FITC/PI staining based flow cytometry; format: functional, cell-based
[13] = tested on: Jurkat; assay: Induction of apoptosis in human Jurkat cells assessed as increase in cleaved PARP-1 level at 20 uM after 48 hrs by immunoblotting; format: functional, cell-based
[14] = tested on: HEK293; assay: Antiproliferative activity against human HEK293 cells incubated with 3000 cells per well after 48 hrs by MTT assay; format: cell-based; conditions: HEK293, 48 h
[15] = tested on: K562; assay: Induction of apoptosis in human K562 cells assessed as early apoptotic cells at 10 uM after 48 hrs by annexin-V-FITC/PI staining based flow cytometry; format: functional, cell-based
[16] = tested on: Jurkat; assay: Induction of apoptosis in human Jurkat cells after 48 hrs at 50 uM by annexin-V-FITC/PI staining based flow cytometry; format: functional, cell-based
[17] = tested on: K562; assay: Induction of reactive oxygen species in human K562 cells at >= 50 uM after 48 hrs by flow cytometry analysis; format: functional, cell-based
[18] = tested on: K562; assay: Induction of apoptosis in human K562 cells after 48 hrs at 50 uM by annexin-V-FITC/PI staining based flow cytometry; format: functional, cell-based
[19] = tested on: Jurkat; assay: Induction of reactive oxygen species in human Jurkat cells at >= 50 uM after 48 hrs by flow cytometry analysis; format: functional, cell-based
[20] = tested on: HepG2; assay: Antiproliferative activity against human HepG2 cells after 48 hrs by MTT assay; format: functional, cell-based; conditions: HepG2, 48 h
[21] = tested on: Jurkat; assay: Induction of apoptosis in human Jurkat cells assessed as increase in cleaved PARP-1 level at 50 and 100 uM after 48 hrs by immunoblotting; format: functional, cell-based

Structure (SMILES): Clc1ccc2[nH]c3snnc3c2c1
- Activity [1]: Dose-dependent effect
- EC50 [2]: 24.4 µM
- Activity [3]: Active
- Activity [4]: Active
- Activity [5]: Dose-dependent effect
- EC50 [6]: 31.2 µM
- Activity [7]: Active
- EC50 [8]: 26.2 µM
- EC50 [9]: 33.8 µM
- Activity [10]: Active

Structure (SMILES): COc1ccc(S(=O)(=O)n2c3ccccc3c3nnsc32)cc1
- Activity [1]: Dose-dependent effect
- EC50 [2]: 15.3 µM
- Activity [11]: inactive
- Activity [12]: Active
- Activity [13]: Active
- Activity [5]: Dose-dependent effect
- EC50 [6]: 12.9 µM
- EC50 [14]: 12.3 µM
- EC50 [8]: 7.97 µM
- Activity [15]: Active
- EC50 [9]: 6.97 µM

Structure (SMILES): O=C(c1ccc(Cl)cc1)n1c2ccccc2c2nnsc21
- Activity [11]: inactive
- Activity [16]: Active
- Activity [17]: Active
- EC50 [8]: 49.4 µM
- Activity [18]: Active
- Activity [19]: Active
- EC50 [9]: 52.3 µM
- EC50 [20]: 60.2 µM
- Activity [21]: Active
